{"source": "ChEMBL document CHEMBL1147279", "about": "“6-Desmethoxyhormothamnione, a new cytotoxic styrylchromone from the marine cryptophyte Chrysophaeum taylori” (1989)", "key": {"[1]": {"assay": "Cytotoxicity against human 9KB cells", "format": "functional", "details": "read-out: LD50 (the source's name)"}, "Staphylococcus aureus": {"tested_on": "Staphylococcus aureus", "assay": "Antimicrobial activity against Staphylococcus aureus at 100 ug by paper disk assay", "format": "functional, organism-based"}, "Escherichia coli": {"tested_on": "Escherichia coli", "assay": "Antimicrobial activity against Escherichia coli at 100 ug by paper disk assay", "format": "functional, organism-based"}, "Pseudomonas aeruginosa": {"tested_on": "Pseudomonas aeruginosa", "assay": "Antimicrobial activity against Pseudomonas aeruginosa at 100 ug by paper disk assay", "format": "functional, organism-based"}, "Candida albicans": {"tested_on": "Candida albicans", "assay": "Antimicrobial activity against Candida albicans at 100 ug by paper disk assay", "format": "functional, organism-based"}, "Bacillus subtilis": {"tested_on": "Bacillus subtilis", "assay": "Antimicrobial activity against Bacillus subtilis at 100 ug by paper disk assay", "format": "functional, organism-based"}}, "note": "Activity calls are given as the source filed them. The rule behind the calls is not given here.", "data": [{"compound": "COc1cc(O)c2c(=O)c(C)c(/C=C/c3cc(O)cc(O)c3)oc2c1OC", "values": [{"measurement": "CC50", "setting": "[1]", "result": 1, "unit": "µg/mL"}, {"measurement": "Activity", "setting": "Staphylococcus aureus", "result": "inactive"}, {"measurement": "Activity", "setting": "Escherichia coli", "result": "inactive"}, {"measurement": "Activity", "setting": "Pseudomonas aeruginosa", "result": "inactive"}, {"measurement": "Activity", "setting": "Candida albicans", "result": "inactive"}, {"measurement": "Activity", "setting": "Bacillus subtilis", "result": "inactive"}]}]}
